How the values were obtained:
[1] = biological target: T1, Deoxyuridine 5'-triphosphate nucleotidohydrolase, mitochondrial (Homo sapiens, UniProt P33316); assay: Inhibition of human dUTPase using [5-3H]dUTP as substrate after 15 mins by HPLC analysis
T1 sequence (P33316 whole entry): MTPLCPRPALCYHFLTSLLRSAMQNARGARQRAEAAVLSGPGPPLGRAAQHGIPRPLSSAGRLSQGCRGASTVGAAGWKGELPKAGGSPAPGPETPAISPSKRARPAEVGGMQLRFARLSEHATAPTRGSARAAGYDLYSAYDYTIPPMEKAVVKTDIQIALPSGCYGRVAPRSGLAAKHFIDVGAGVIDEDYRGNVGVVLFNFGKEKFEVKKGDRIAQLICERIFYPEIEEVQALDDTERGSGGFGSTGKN

[2] = Potentiation of antiproliferative activity of FdUrd against human HeLaS3 cells assessed as reduction in FdUrd T/C value by half after 24 hrs by crystal violet assay; type: functional, cell-based; details: HeLa S3, 24 h
[3] = Antiproliferative activity against human HeLaS3 cells after 72 hrs by crystal violet assay; type: functional, cell-based; details: HeLa S3, 72 h
[4] = Competitive inhibition of Escherichia coli dUTPase
[5] = biological target: T1, Deoxyuridine 5'-triphosphate nucleotidohydrolase, mitochondrial; assay: Inhibition of human dUTPase

**Q.** For `CN(CC(O)(c1ccccc1)c1ccccc1)C(=O)CCCn1ccc(=O)[nH]c1=O`, which IC50 [1] is on record?
**A.** 1.1 µM

**Q.** For `CC(C)(CO)NC(=O)CCCn1ccc(=O)[nH]c1=O`, which IC50 [1] is on record?
**A.** > 30 µM

**Q.** Which results are given for `O=c1ccn(CCCS(=O)(=O)N2CCC[C@@H]2C(O)(c2ccccc2)c2ccccc2)c(=O)[nH]1`?
**A.** EC50 [2]: 0.3 µM; IC50 [1]: 0.32 µM; EC50 [3]: > 100 µM

**Q.** With `CC(C)(C)CC(C)(C)NC(=O)CCn1ccc(=O)[nH]c1=O` as the molecule, how does the IC50 [1] read?
**A.** > 30 µM

**Q.** Which IC50 [1] does the source give for `COc1ccc(C(O)(c2ccc(OC)cc2)[C@@H]2CCCN2C(=O)CCCn2ccc(=O)[nH]c2=O)cc1` here?
**A.** > 1 µM

**Q.** For `CCC(CC)(CC)NC(=O)CCCn1ccc(=O)[nH]c1=O`, which IC50 [1] is on record?
**A.** > 30 µM

**Q.** For `CC(C)(C)CC(C)(C)NC(=O)CCCn1ccc(=O)[nH]c1=O`, which IC50 [1] is on record?
**A.** 30 µM

**Q.** For `CC(C)(NC(=O)CCn1ccc(=O)[nH]c1=O)C(O)(c1ccccc1)c1ccccc1`, which IC50 [1] is on record?
**A.** 7.3 µM

**Q.** Which IC50 [1] does the source give for `COc1cccc(C(O)(c2cccc(OC)c2)[C@@H]2CCCN2C(=O)CCCn2ccc(=O)[nH]c2=O)c1` here?
**A.** > 1 µM

**Q.** For `O=C(CCCn1ccc(=O)[nH]c1=O)N1CCC[C@H]1C(O)(c1ccccc1)c1ccccc1`, which EC50 [2] is on record?
**A.** 0.27 µM

**Q.** What about the IC50 [1] of the same molecule?
**A.** 0.29 µM

**Q.** And the EC50 [3]?
**A.** > 100 µM

**Q.** For `COc1cccc(C(O)(c2cccc(OC)c2)[C@H]2CCCN2S(=O)(=O)CCCn2ccc(=O)[nH]c2=O)c1`, which IC50 [1] is on record?
**A.** > 1 µM

**Q.** With `COc1ccccc1C(O)(c1ccccc1OC)[C@@H]1CCCN1C(=O)CCCn1ccc(=O)[nH]c1=O` as the molecule, how does the IC50 [1] read?
**A.** > 1 µM

**Q.** Which IC50 [1] does the source give for `O=c1ccn(CCCS(=O)(=O)N2CCC[C@@H]2C(O)(c2ccc(F)cc2)c2ccc(F)cc2)c(=O)[nH]1` here?
**A.** 0.31 µM

**Q.** Which results are given for `CC(C)(NC(=O)CCCn1ccc(=O)[nH]c1=O)C(O)(c1ccccc1)c1ccccc1`?
**A.** EC50 [2]: 3 µM; IC50 [1]: 2.5 µM; EC50 [3]: > 100 µM

**Q.** Which IC50 [1] does the source give for `O=C(CCn1ccc(=O)[nH]c1=O)NCC(c1ccccc1)c1ccccc1` here?
**A.** > 30 µM

**Q.** For `CC(C)(Cc1ccccc1)NC(=O)CCCn1ccc(=O)[nH]c1=O`, which IC50 [1] is on record?
**A.** > 30 µM

**Q.** With `CC(C)(Cc1ccc2ccccc2c1)NC(=O)CCCn1ccc(=O)[nH]c1=O` as the molecule, how does the IC50 [1] read?
**A.** > 30 µM

**Q.** Which IC50 [1] does the source give for `COc1ccccc1C(O)(c1ccccc1OC)[C@H]1CCCN1S(=O)(=O)CCCn1ccc(=O)[nH]c1=O` here?
**A.** > 1 µM

**Q.** Which IC50 [1] does the source give for `O=C(CCCn1ccc(=O)[nH]c1=O)N1CCC[C@H]1C(O)(c1cccc(-c2ccsc2)c1)c1cccc(-c2ccsc2)c1` here?
**A.** 0.23 µM

**Q.** Which IC50 [1] does the source give for `O=C(CCn1ccc(=O)[nH]c1=O)N1CCC(Cc2ccccc2)CC1` here?
**A.** > 30 µM

**Q.** For `O=C(CCCn1ccc(=O)[nH]c1=O)NC(c1ccccc1)c1ccccc1`, which IC50 [1] is on record?
**A.** > 30 µM

**Q.** Which IC50 [1] does the source give for `O=C(CCCn1ccc(=O)[nH]c1=O)N1CCC[C@H]1C(O)(c1cccc(F)c1)c1cccc(F)c1` here?
**A.** 0.35 µM

**Q.** With `O=c1ccn(CCCS(=O)(=O)N2CCC[C@@H]2C(O)(c2cccc(F)c2)c2cccc(F)c2)c(=O)[nH]1` as the molecule, how does the IC50 [1] read?
**A.** 0.28 µM

**Q.** For `O=C(CCCn1ccc(=O)[nH]c1=O)N1CCC[C@H]1C(c1ccccc1)c1ccccc1`, which IC50 [1] is on record?
**A.** 0.15 µM

**Q.** For `O=C(CCCn1ccc(=O)[nH]c1=O)Nc1ccccc1`, which IC50 [1] is on record?
**A.** > 30 µM

**Q.** For `CN(CC(c1ccccc1)c1ccccc1)C(=O)CCCn1ccc(=O)[nH]c1=O`, which EC50 [2] is on record?
**A.** 1.2 µM

**Q.** What about the IC50 [1] of the same molecule?
**A.** 1.3 µM

**Q.** And the EC50 [3]?
**A.** > 100 µM

**Q.** For `CC(C)(NC(=O)CCCn1ccc(=O)[nH]c1=O)c1ccccc1`, which IC50 [1] is on record?
**A.** > 30 µM

**Q.** Which IC50 [1] does the source give for `CCC(CC)(CC)NC(=O)CCn1ccc(=O)[nH]c1=O` here?
**A.** 22 µM

**Q.** With `O=c1ccn([C@H]2C[C@H](O)[C@@H](COP(=O)(O)NP(=O)(O)OP(=O)(O)O)O2)c(=O)[nH]1` as the molecule, how does the Ki [4] read?
**A.** 5 µM

**Q.** What about the IC50 [1] of the same molecule?
**A.** 15 µM

**Q.** Which IC50 [1] does the source give for `O=C(CCCn1ccc(=O)[nH]c1=O)N1CCC[C@H]1C(O)(c1ccc(Cl)cc1)c1ccc(Cl)cc1` here?
**A.** > 1 µM

**Q.** For `CC(C)(CCc1ccccc1)NC(=O)CCCn1ccc(=O)[nH]c1=O`, which IC50 [1] is on record?
**A.** 21 µM

**Q.** For `CC(C)(C)NC(=O)CCCn1ccc(=O)[nH]c1=O`, which IC50 [1] is on record?
**A.** 97 µM

**Q.** For `O=C(CCn1ccc(=O)[nH]c1=O)NC(c1ccccc1)c1ccccc1`, which IC50 [1] is on record?
**A.** > 30 µM

**Q.** For `O=c1ccn([C@H]2C[C@H](O)[C@@H](COP(=O)(O)CP(=O)(O)OP(=O)(O)OCc3ccccc3)O2)c(=O)[nH]1`, which Ki [5] is on record?
**A.** 0.3 µM

**Q.** Which IC50 [1] does the source give for `O=C(CCCn1ccc(=O)[nH]c1=O)N1CCC[C@@H]1C(O)(c1ccccc1)c1ccccc1` here?
**A.** 10 µM

**Q.** For `O=C(CCCn1ccc(=O)[nH]c1=O)N1CCC[C@H]1C(O)(c1cccc(Cl)c1)c1cccc(Cl)c1`, which IC50 [1] is on record?
**A.** 0.58 µM

**Q.** For `O=C(CCn1ccc(=O)[nH]c1=O)NCCC(c1ccccc1)c1ccccc1`, which IC50 [1] is on record?
**A.** > 30 µM

**Q.** With `O=C(CCCn1ccc(=O)[nH]c1=O)NCc1ccccc1` as the molecule, how does the IC50 [1] read?
**A.** > 30 µM

**Q.** For `CC(C)(C)NC(=O)CCn1ccc(=O)[nH]c1=O`, which IC50 [1] is on record?
**A.** > 30 µM

**Q.** For `O=C(CCn1ccc(=O)[nH]c1=O)N(Cc1ccccc1)Cc1ccccc1`, which IC50 [1] is on record?
**A.** > 30 µM

**Q.** With `O=C(CCCn1ccc(=O)[nH]c1=O)N1CCC[C@H]1C(O)(c1ccc(F)cc1)c1ccc(F)cc1` as the molecule, how does the IC50 [1] read?
**A.** 0.6 µM

**Q.** Which IC50 [1] does the source give for `O=C(CCn1ccc(=O)[nH]c1=O)N1CCC[C@H]1C(O)(c1ccccc1)c1ccccc1` here?
**A.** > 1 µM

**Q.** Which IC50 [1] does the source give for `O=c1ccn(CCCS(=O)(=O)N2CCC[C@H]2C(O)(c2ccccc2)c2ccccc2)c(=O)[nH]1` here?
**A.** 9.4 µM

**Q.** For `O=C(CCCn1ccc(=O)[nH]c1=O)NCC(c1ccccc1)c1ccccc1`, which IC50 [1] is on record?
**A.** 16 µM

— ChEMBL document CHEMBL2046335, “Synthesis and discovery of N-carbonylpyrrolidine- or N-sulfonylpyrrolidine-containing uracil derivatives as potent human deoxyuridine triphosphatase inhibitors” (J Med Chem, 2012)
